Values of other authors, collected in patent publication US20200338012A1 (TAHO Pharmaceuticals Ltd., priority 2019, published 2020).
≈ marks a conversion by molar mass, not a printed value.

Legend:
[1] = oral tablet

water solubility: 0.0679 mg/mL (≈ 148 µM)
bioavailability [1]: 50%
SMILES: COc1ccc(-n2nc(C(N)=O)c3c2C(=O)N(c2ccc(N4CCCCC4=O)cc2)CC3)cc1 [apixaban, Apixaban]
